Peptide text beside a SMILES is read from it. * marks the point of attachment. Biotin = O=C1N[C@H]2[C@H](CS[C@H]2CCCCC(=O)*)N1; Ahx = NCCCCCC(=O)O
Experiments:
[1] = molecular target: T1, Recombinant rat CaMKIIδ‐T287D (Rattus norvegicus, UniProt P15791, T287D); experiment: ELISA-based competition assay with T‐site binding peptides; conditions: 5 μL 1 mM biotin‐SN‐db‐short with 20 μL 1 mM untagged competitor; Figure 2C, n = 4–12
T1 construct: Recombinant human His‐CaMKIIδ‐T287D and rat His‐CaMKIIδ‐T287D full‐length proteins; His; purchased Genscript Corp (custom made)
Procedure: The wells were then washed five times with 1× PBS‐t. […] For the competition assay, 20 μL (1 mM) of T‐site binding peptides AKAP18δ‐N1, CN21 or CN27 (without any biotin tags) were incubated in the same well with 5 μL (1 mM) of SN biotinylated peptides.

[2] = tested on: CaMKIIδ fragments (aa 1–74, 1–165, 1–282, 1–311, 69–282); experiment: ELISA-based binding to CaMKIIδ fragments; set-up: species or system rat; conditions: biotinylated peptide; fragments coated in wells; relative to Scram; Figure 2B, n = 9–13
Procedure: Recombinant human His‐CaMKIIδ‐T287D and rat His‐CaMKIIδ‐T287D full‐length proteins (T287D mutated to mimic active kinases) and rat His‐CaMKIIδ (1–74), rat His‐CaMKIIδ (1–165), rat His‐CaMKIIδ (1–282), rat His‐CaMKIIδ‐T287D (1–311), and rat His‐CaMKIIδ (69–282) recombinant fragments were generated by Genscript Corp.
A 96‐well microplate was coated with 1 μg/well of rat or human recombinant His‐CaMKIIδ‐T287D or CaMKIIδ fragments (custom made by Genscript) in 1× PBS overnight at 4°C with gentle tilting. Wells were washed with 1× PBS‐t (0.1% Tween‐20) and blocked with 0.5% gelatin (G‐1890 Gelatin type A, Sigma Merck, Darmstadt, Germany) or BSA (805095 30% BSA (Rinderalbumin 30%), Norsk Labex, Høvik, Norway) for 1 h at room temperature (RT), then incubated with 5 μL of biotinylated peptide (1 mM) for 2 h at 37°C with gentle tilting. The wells were then washed five times with 1× PBS‐t. To detect binding, the wells were incubated with a monoclonal anti‐biotin‐HRP conjugated antibody (1:5000 dilution, A‐0185, Sigma) for 30 min at RT. […] The reaction was stopped by adding 2 N HCl (100 μL), and the signal was measured at 450 nm by a plate reader (Hidex Sense Microplate Reader, Åbo, Finland). […]

human His‐CaMKIIδ‐T287D [3] = molecular target: T2, human His‐CaMKIIδ‐T287D (Homo sapiens, UniProt Q13557, T287D); experiment: CaMKII pull-down with biotinylated peptides on streptavidin beads; format: binding; conditions: biotin‐SN‐db‐short vs biotin‐SN; immunoblot; Figure S2A, n = 8
T2 construct: Recombinant human His‐CaMKIIδ‐T287D and rat His‐CaMKIIδ‐T287D full‐length proteins; His; purchased Genscript Corp (custom made)
T2 sequence (Q13557 whole entry T287D): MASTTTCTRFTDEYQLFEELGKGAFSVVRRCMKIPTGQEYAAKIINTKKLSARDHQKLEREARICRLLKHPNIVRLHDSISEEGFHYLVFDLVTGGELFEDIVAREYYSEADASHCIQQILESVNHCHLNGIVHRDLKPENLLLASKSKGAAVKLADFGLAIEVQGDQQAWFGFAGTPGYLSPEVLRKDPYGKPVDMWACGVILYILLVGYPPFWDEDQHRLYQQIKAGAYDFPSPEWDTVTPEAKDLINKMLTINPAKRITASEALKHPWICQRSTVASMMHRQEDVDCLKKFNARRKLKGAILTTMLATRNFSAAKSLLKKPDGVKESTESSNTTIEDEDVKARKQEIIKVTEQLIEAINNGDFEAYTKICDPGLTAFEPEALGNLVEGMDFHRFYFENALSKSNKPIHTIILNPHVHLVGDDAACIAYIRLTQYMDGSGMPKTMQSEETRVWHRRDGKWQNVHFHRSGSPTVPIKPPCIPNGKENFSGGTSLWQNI
Procedure: In the CaMKII pull‐down assay, the biotinylated peptides (20 μL) were coupled to 50 μL of streptavidin magnetic beads (88816, Thermo Fisher) in PBS for 2 h at 4°C with rotation. The bead‐bound peptides were thereafter incubated with 1 μg of human His‐CaMKIIδ‐T287D in 300 μL of PBS or PBS with 1% BSA for 2 h at 4°C with rotation. The protein complexes attached to the beads were then washed three times in 300 μL of IP buffer (20 mM Hepes, pH 7.5, 150 mM NaCl, 1 mM EDTA, 1% Triton X‐100, supplemented with complete protease inhibitor cocktail and phosphatase inhibitor cocktail) or PBS. Samples were boiled in SDS loading buffer at 95°C for 5 min before western blot analysis.
Lysates and immunoprecipitates were separated on 12% or 4%–15% Criterion TGX precast gels (5671044 and 5671084, Biorad, Hercules, CA, USA), blotted onto PVDF membranes (1704157 by Biorad or 03010040001 by Sigma Merck) and reversibly stained with Revert 700 Total Protein Stain (Li‐COR Biosciences, Lincoln, NE, USA). […] Blots were developed using ECL (RPN2236, GE Healthcare, Chicago, IL, USA) after four washing steps of 10 min in TBS‐t and the chemiluminescence signals were detected by Azure Biosystems 600 (Dublin, CA, USA). […] ImageJ [13] was used to quantify the blots. […]

human His‐CaMKIIδ‐T287D [4] = molecular target: T2, human His‐CaMKIIδ‐T287D; experiment: ELISA-based binding to human His‐CaMKIIδ‐T287D; conditions: biotin‐ahx‐SN‐db‐short; values relative to biotin‐ahx‐Scram; Figure S2B, n = 6
Procedure: A 96‐well microplate was coated with 1 μg/well of rat or human recombinant His‐CaMKIIδ‐T287D or CaMKIIδ fragments (custom made by Genscript) in 1× PBS overnight at 4°C with gentle tilting. Wells were washed with 1× PBS‐t (0.1% Tween‐20) and blocked with 0.5% gelatin (G‐1890 Gelatin type A, Sigma Merck, Darmstadt, Germany) or BSA (805095 30% BSA (Rinderalbumin 30%), Norsk Labex, Høvik, Norway) for 1 h at room temperature (RT), then incubated with 5 μL of biotinylated peptide (1 mM) for 2 h at 37°C with gentle tilting. The wells were then washed five times with 1× PBS‐t. To detect binding, the wells were incubated with a monoclonal anti‐biotin‐HRP conjugated antibody (1:5000 dilution, A‐0185, Sigma) for 30 min at RT. The washing steps were repeated, and the plate was incubated with the Ultra TMB solution (1‐step Ultra TMB‐ELISA Substrate Solution 34028, Thermo Fischer Scientific, Waltham, MA, USA) for 30 min at RT with gentle tilting. The reaction was stopped by adding 2 N HCl (100 μL), and the signal was measured at 450 nm by a plate reader (Hidex Sense Microplate Reader, Åbo, Finland). For the competition assay, 20 μL (1 mM) of T‐site binding peptides AKAP18δ‐N1, CN21 or CN27 (without any biotin tags) were incubated in the same well with 5 μL (1 mM) of SN biotinylated peptides. […]

SN‐db‐short binding to CaMKIIδ‐T287D in presence of competitor peptides AKAP18δ‐N1, CN21, CN27 [1]: only marginally outcompeted
Binding to CaMKIIδ fragments [2]: binding was detected for all fragments
Binding to recombinant human CaMKIIδ‐T287D vs. native SN (pull down) (human His‐CaMKIIδ‐T287D [3]): increased binding
Binding to recombinant human CaMKIIδ‐T287D (ELISA) (human His‐CaMKIIδ‐T287D [4]): increased binding
SMILES: CC(C)C[C@H](NC(=O)[C@H](CCC(=O)O)NC(=O)[C@H](CCC(N)=O)NC(=O)[C@H](Cc1ccccc1)NC(=O)[C@H](Cc1ccccc1)NC(=O)[C@H](CO)NC(=O)[C@H](CCC(=O)O)NC(=O)[C@H](Cc1ccccc1)NC(=O)[C@@H](NC(=O)[C@H](C)NC(=O)[C@H](CC(C)C)NC(=O)[C@H](CO)NC(=O)[C@H](CCC(N)=O)NC(=O)[C@@H]1CCCN1C(=O)[C@@H](NC(=O)[C@H](Cc1ccc(O)cc1)NC(=O)[C@H](CCC(N)=O)NC(=O)[C@H](CCC(=O)O)NC(=O)CCCCCNC(=O)CCCC[C@@H]1SC[C@@H]2NC(=O)N[C@@H]21)[C@@H](C)O)[C@@H](C)O)C(=O)NCC(=O)N[C@@H](CCCCN)C(=O)O [SN‐db‐short] ({Biotin-Ahx}-EQYTPQSLATFESFFQELGK-OH; N-terminus and C-terminus assumed)

From PMC12544700, “Identification of a Small Secretoneurin Derivative That Inhibits CaMKIIδ Activity” (Journal of Cellular and Molecular Medicine, 2025)
